Like-named read-outs stand apart in the source and are kept apart here.
Experiments:
[1] = young piglets
[2] = cited from earlier work
[3] = for Carcass yield: HCW divided by live weight
Experimental: (§1) The trial was conducted in the grower-finisher unit 1 and 2 of Cargill Innovation Center Velddriel, The Netherlands. Pigs were allocated with 64 days of age. A randomized block design was used using 6 treatments divided over 48 pens by using 8 weight blocks in total. A pen was the experimental unit. Each pen contained 4 animals. Barrows and gilts were equally distributed among treatments. The experiment consisted of a 3×2 factorial design with three different levels of Bolifor™ CNFR (calcium nitrate) and with and without heat stress, with 8 replications per treatment (Table 1). During phase 1 (day 0 to day 24, i.e., d0-24) a common diet was fed. In phase 2 (d24-56) and phase 3 (d56-101) pigs were fed one of the 6 experimental diets (pellet form).
On day 83 of the trial one pig per pen was removed and transported to a commercial processing plant. On day 102, pigs were weighed and transported to a commercial processing plant (Compaxo, Zevenaar, The Netherlands). Each pig received an ear tag according to pen number to allow for data retrieval by pen and carcass data collection at the packing plant. Hot carcass weights (HCW) were measured immediately after evisceration and each carcass was evaluated for backfat, loin depth, and lean percentage. Fat depth and loin depth were measured with an optical probe inserted between 3rd and 4th last rib. Lean percentage was provided from the packing plant by using a proprietary equation. Percentage yield was calculated by dividing HCW by live weight obtained before transport to the packing plant.
Temperature, humidity and ventilation were automatically controlled. During phase 1 (from experimental day 0 until 24) pigs were not submitted to heat stress conditions. From experimental day 32 onwards pigs in Unit 2 were exposed to heat stress conditions (total period length of 66 days). During this period of heat stress the temperature was raised to 30° C. (from 8 AM-6 PM) and decreased to 26° C. from 6 PM-8 AM. During the heat stress period the relative humidity was kept at 80% in Unit 2 and the minimum ventilation was adjusted according to the body weight of the pigs.

[4] = Experimental: as §1
Feed intake and body weight were measured at day 0, 24, 39, 59, 83 and 101. Ultrasound measurements were made at day 24, 59 and 101. To get more insight on metabolic defenses when pigs are submitted to heat stress, urine samples were taken at experimental day 84 (105 kg average BW) in the morning from the control animals (16 animals) in the heat stress group and the non-heat stressed group to measure pH, and calcium and phosphorus content. The pH was measured right after collection. During the first three weeks of heat stress skin temperature was measured daily with an infrared device (Testo 845). From 3 weeks onwards, skin temperature was measured weekly.
For comparison of the different treatments, the parameters ADG, ADFI and Feed conversion ratio (FRC) (all normally distributed) were subjected to Mixed Model analysis, using SAS JMP (Version 9.0, SAS Institute Inc., Cary, NC, 2008) according to the following statistical model: Yijk=μ+αi+βj+(αβ)ij+Sexk+δi1+BW24m+εijklm Where, • μ=population mean; • αi=main effect of temperature/room i (A), i=1, 2; • βj=main effect of calcium nitrate level j (B), j=1, 2, 3; • Sex1=random effect of sex, 1=barrow, gilt; • BW24m=BW at day 24 (covariable) • (αβ)ij is the interaction effect of A and B; for each j and for each i • δik˜Niid(0, s^2a) is the whole plot (block) error, k=1, 2, . . . , 8; • εijk˜Niid(0, s^2e) is the sub plot (pen) error, k=1, 2, . . . , 8. Linear and quadratic contrast for calcium nitrate level was tested. Differences between treatment means were assumed to be significant based on the probability of P<0.05 (Student t-test); unless other probability value is stated.

longissimus muscle = settings: for L* day 2 / a* day 2 / b* day 2 / pH* day 2: 24 hours after slaughter; for L* day 1 / a* day 1 / b* day 1: day of slaughter
Experimental: as §1
At slaughter, meat samples were taken to measure meat color. Color was evaluated at the longissimus muscle for L* (lightness), a* (redness), and b* (yellowness) values using a Minolta spectrophotometer. The first measurement was taken 3 hours postmortem and the second measurement 24 hours after first measurement. At the time of the 2nd color measurement, pH was also measured.

[5] = grower-finisher pigs, nitrate in the water
[6] = 0.063% nitrate inclusion in feed
[7] = heat stress, nitrate 0.063% in diet
[8] = heat stress, nitrate 0.1% in diet
[9] = normal temperature, nitrate 0.063% in diet
[10] = normal temperature, nitrate 0.1% in diet

For `O=[N+]([O-])[O-].O=[N+]([O-])[O-].[Ca+2]` [Nitrate, calcium nitrate], the “adverse effects on performance” value ([1]; feed dose titration 0.2, 0.4, 0.6, 0.8 and 1.0% calcium nitrate) is given as “no adverse effects”, the met-hemoglobin ([1]; highest level of calcium nitrate inclusion) is given as “stayed well within levels considered as safe” and the “effect on hemoglobin or met-hemoglobin in the blood” value [2, 5] is given as “no effect”. The “effect on meat and liver NO content and on meat color, smell or taste” value [2, 5] was “no effect”, the “level of nitrate in swine feed that can be dosed safely” value ([2]; swine feed) was no less than 0.1% and the “carcass yield, rank among treatments” value [3, 6] was “highest”. The “slaughter weight, rank among treatments” value [3, 6] was “lowest slaughter weight”, the “effect of nitrate level on carcass yield” value ([3]; P<0.05) was “quadratic effect” and the “effect of nitrate level on full weight” value ([3]; P<0.05) was “quadratic effect”. For the same compound, the “effect of nitrate level on slaughter weight” value ([3]; P<0.05) was “quadratic effect”, the Backfat [3, 7] was 18.7 mm and the Carcass weight [3, 7] was 100.2 kg. It also gave a Lean meat [3, 7] of 56.1%, a Muscle [3, 7] of 68.6 mm and a Slaughter weight [3, 7] of 122.8 kg. For the same compound, the Weight full [3, 7] was 125.0 kg, the Carcass yield [3, 7] was 81.7% and the Backfat [3, 8] was 18.9 mm. It also gave a Carcass weight [3, 8] of 101.2 kg, a Lean meat [3, 8] of 55.9% and a Muscle [3, 8] of 68.5 mm. For the same compound, the Slaughter weight [3, 8] was 124.9 kg, the Weight full [3, 8] was 127.6 kg and the Carcass yield [3, 8] was 81.2%. The “carcass weight compared to the other treatments” value ([3]; normal temperature, 0.063%) was “higher carcass weight”, the Backfat [3, 9] was 20.3 mm and the Carcass weight [3, 9] was 105.1 kg. The Lean meat [3, 9] was 55.0%, the Muscle [3, 9] was 67.8 mm and the Slaughter weight [3, 9] was 126.0 kg. For the same compound, the Weight full [3, 9] was 128.2 kg, the Carcass yield [3, 9] was 83.6% and the Backfat [3, 10] was 16.8 mm. The Carcass weight [3, 10] was 99.5 kg, the Lean meat [3, 10] was 57.4% and the Muscle [3, 10] was 69.3 mm. It also gave a Slaughter weight [3, 10] of 127.3 kg, a Weight full [3, 10] of 129.6 kg and a Carcass yield [3, 10] of 78.3%. The “effect of calcium nitrate level on weight” value ([4]; day 83 and 101, P<0.05) was “quadratic effect”, the FCR ([4]; overall period (24-101 days), nitrate level 1 (0.063%), heat stress conditions, tendency P=0.09) was “better FCR” and the “FCR with increasing level of calcium nitrate in the diet” value ([4]; phase 2 (d24-59) and whole trial (d24-101), P<0.05) was “linearly increased”. The “effect of calcium nitrate level on ADG” value ([4]; phase 3 (d59-101), P<0.10) was “tended to show a quadratic effect”, the “effect of calcium nitrate level on ADFI” value ([4]; phase 3 and whole trial, P<0.05) was “quadratic effect” and the “effect of calcium nitrate level on ADG” value ([4]; whole trial (d24-101), P<0.05) was “quadratic effect”. For the same compound, the “L* day 2” value (longissimus muscle; [7]) was 55.5, the “a* day 2” value (longissimus muscle; [7]) was 9.5 and the “b* day 2” value (longissimus muscle; [7]) was −0.4. For the same compound, the “pH* day 2” value (longissimus muscle; [7]) was 5.36, the “L* day 2” value (longissimus muscle; [8]) was 55.1 and the “a* day 2” value (longissimus muscle; [8]) was 9.8. The “b* day 2” value (longissimus muscle; [8]) was −0.7, the “pH* day 2” value (longissimus muscle; [8]) was 5.35 and the “L* day 2” value (longissimus muscle; [9]) was 53.5. For the same compound, the “a* day 2” value (longissimus muscle; [9]) was 9.8, the “b* day 2” value (longissimus muscle; [9]) was −1.0 and the “pH* day 2” value (longissimus muscle; [9]) was 5.60. For the same compound, the “L* day 2” value (longissimus muscle; [10]) was 53.7, the “a* day 2” value (longissimus muscle; [10]) was 9.9 and the “b* day 2” value (longissimus muscle; [10]) was −0.9. For the same compound, the “pH* day 2” value (longissimus muscle; [10]) was 5.58, the “L* day 1” value (longissimus muscle; [7]) was 43.1 and the “a* day 1” value (longissimus muscle; [7]) was 7.0. The “b* day 1” value (longissimus muscle; [7]) was −1.5, the “L* day 1” value (longissimus muscle; [8]) was 42.5 and the “a* day 1” value (longissimus muscle; [8]) was 7.1. For the same compound, the “b* day 1” value (longissimus muscle; [8]) was −1.6, the “L* day 1” value (longissimus muscle; [9]) was 42.5 and the “a* day 1” value (longissimus muscle; [9]) was 7.3. For the same compound, the “b* day 1” value (longissimus muscle; [9]) was −1.5, the “L* day 1” value (longissimus muscle; [10]) was 43.0 and the “a* day 1” value (longissimus muscle; [10]) was 7.2. For the same compound, the “b* day 1” value (longissimus muscle; [10]) was −1.4, the “parameter a* at day 2 with increasing level of calcium nitrate in the diet” value (longissimus muscle; main effect of nitrate level, P=0.012) was “linearly increased” and the “pH values in longissimus dorsi, main effect of nitrate” value (longissimus muscle; pig, in vivo) was “no significant effects”.
